# According to ChEMBL document CHEMBL3751693, “Synthesis, antimicrobial evaluation and molecular modeling of 5-hydroxyisoquinolinium salt series; the effect of the hydroxyl moiety” (Bioorg Med Chem, 2016):
# Tests used:
# [1] = Cytotoxicity against CHOK1 cells after 24 hrs by MTT assay; type: cell-based; settings: Cricetulus griseus, CHO-K1, 24 h
# [2] = test system: Pseudomonas aeruginosa; experiment: Antimicrobial activity against clinical isolate Pseudomonas aeruginosa CCM 1961 after 120 hrs; type: functional; settings: CCM 1961, 120 h
# [3] = test system: Candida tropicalis; experiment: Antimicrobial activity against Candida tropicalis 156 after 48 hrs by spectrophotometry; type: functional; settings: Candida tropicalis, 156, 48 h
# [4] = test system: Candida albicans; experiment: Antimicrobial activity against Candida albicans ATCC 44859 after 24 hrs by spectrophotometry; type: functional; settings: ATCC 44859, 24 h
# [5] = test system: Candida albicans; experiment: Antimicrobial activity against Candida albicans ATCC 44859 after 48 hrs by spectrophotometry; type: functional; settings: ATCC 44859, 48 h
# [6] = test system: Trichosporon asahii; experiment: Antimicrobial activity against Trichosporon asahii 1188 after 24 hrs by spectrophotometry; type: functional; settings: Trichosporon asahii, 1188, 24 h
# [7] = test system: Candida tropicalis; experiment: Antimicrobial activity against Candida tropicalis 156 after 24 hrs by spectrophotometry; type: functional; settings: Candida tropicalis, 156, 24 h
# [8] = test system: Staphylococcus aureus; experiment: Antimicrobial activity against clinical isolate Staphylococcus aureus CCM 451608 after 24 hrs; type: functional; settings: CCM 451608, 24 h
# [9] = test system: Lichtheimia corymbifera; experiment: Antimicrobial activity against Absidia corymbifera 272 after 24 hrs by spectrophotometry; type: functional; settings: Lichtheimia corymbifera, 272, 24 h
# [10] = test system: Lichtheimia corymbifera; experiment: Antimicrobial activity against Absidia corymbifera 272 after 48 hrs by spectrophotometry; type: functional; settings: Lichtheimia corymbifera, 272, 48 h
# [11] = test system: Aspergillus fumigatus; experiment: Antimicrobial activity against Aspergillus fumigatus 231 after 48 hrs by spectrophotometry; type: functional; settings: Aspergillus fumigatus, 231, 48 h
# [12] = test system: Trichophyton mentagrophytes; experiment: Antimicrobial activity against Trichophyton mentagrophytes 445 after 120 hrs by spectrophotometry; type: functional; settings: Trichophyton mentagrophytes, 445, 120 h
# [13] = test system: Trichophyton mentagrophytes; experiment: Antimicrobial activity against Trichophyton mentagrophytes 445 after 72 hrs by spectrophotometry; type: functional; settings: Trichophyton mentagrophytes, 445, 72 h
# [14] = test system: Pichia kudriavzevii; experiment: Antimicrobial activity against Candida krusei E28 after 48 hrs by spectrophotometry; type: functional; settings: E28, 48 h
# [15] = test system: Escherichia coli; experiment: Antimicrobial activity against clinical isolate Escherichia coli CCM 4517 after 48 hrs; type: functional; settings: CCM 4517, 48 h
# [16] = test system: Aspergillus fumigatus; experiment: Antimicrobial activity against Aspergillus fumigatus 231 after 24 hrs by spectrophotometry; type: functional; settings: Aspergillus fumigatus, 231, 24 h
# [17] = test system: Nakaseomyces glabratus; experiment: Antimicrobial activity against Candida glabrata 20/I after 48 hrs by spectrophotometry; type: functional
# [18] = test system: Pichia kudriavzevii; experiment: Antimicrobial activity against Candida krusei E28 after 24 hrs by spectrophotometry; type: functional; settings: E28, 24 h
# [19] = test system: Trichosporon asahii; experiment: Antimicrobial activity against Trichosporon asahii 1188 after 48 hrs by spectrophotometry; type: functional; settings: Trichosporon asahii, 1188, 48 h
# [20] = test system: Pseudomonas aeruginosa; experiment: Antimicrobial activity against clinical isolate Pseudomonas aeruginosa CCM 1961 after 72 hrs; type: functional; settings: CCM 1961, 72 h
# [21] = test system: Staphylococcus epidermidis; experiment: Antimicrobial activity against clinical isolate Staphylococcus epidermidis H 696608 after 24 hrs; type: functional; settings: H 696608, 24 h
# [22] = test system: Staphylococcus aureus; experiment: Antimicrobial activity against clinical isolate Staphylococcus aureus CCM 451608 after 48 hrs; type: functional; settings: CCM 451608, 48 h
# [23] = test system: Enterococcus sp.; experiment: Antimicrobial activity against clinical isolate Enterococcus sp. J 1436508 after 24 hrs; type: functional; settings: J 1436508, 24 h
# [24] = test system: Nakaseomyces glabratus; experiment: Antimicrobial activity against Candida glabrata 20/I after 24 hrs by spectrophotometry; type: functional
# [25] = test system: Klebsiella pneumoniae; experiment: Antimicrobial activity against clinical isolate Klebsiella pneumoniae D 1175008 after 48 hrs; type: functional; settings: D 1175008, 48 h
# [26] = test system: Staphylococcus aureus; experiment: Antimicrobial activity against clinical isolate methicillin-resistant Staphylococcus aureus H 599608 after 24 hrs; type: functional; settings: H 599608, 24 h
# [27] = test system: Staphylococcus epidermidis; experiment: Antimicrobial activity against clinical isolate Staphylococcus epidermidis H 696608 after 48 hrs; type: functional; settings: H 696608, 48 h
# [28] = test system: Klebsiella pneumoniae; experiment: Antimicrobial activity against clinical isolate Klebsiella pneumoniae D 1175008 after 24 hrs; type: functional; settings: D 1175008, 24 h
# [29] = test system: Enterococcus sp.; experiment: Antimicrobial activity against clinical isolate Enterococcus sp. J 1436508 after 48 hrs; type: functional; settings: J 1436508, 48 h
# [30] = test system: Staphylococcus aureus; experiment: Antimicrobial activity against clinical isolate methicillin-resistant Staphylococcus aureus H 599608 after 48 hrs; type: functional; settings: H 599608, 48 h
# [31] = test system: Escherichia coli; experiment: Antimicrobial activity against clinical isolate Escherichia coli CCM 4517 after 24 hrs; type: functional; settings: CCM 4517, 24 h
# [32] = test system: Klebsiella pneumoniae; experiment: Antimicrobial activity against clinical isolate ESBL-Klebsiella pneumoniae J 1436808 after 48 hrs; type: functional; settings: J 1436808, 48 h
# [33] = test system: Klebsiella pneumoniae; experiment: Antimicrobial activity against clinical isolate ESBL-Klebsiella pneumoniae J 1436808 after 24 hrs; type: functional; settings: J 1436808, 24 h
smiles,measurement,setting,value
CCCCCCCCCCCCCCCCCC[n+]1ccc2c(O)cccc2c1,IC50,[1],7 µM
CCCCCCCCCCCC[n+]1ccc2ccccc2c1 [LAURYL ISOQUINOLINIUM BROMIDE],MBC,[2],250 µM
same,MIC,[2],250 µM
same,MFC,[3],1 µM
same,MIC,[3],0.5 µM
same,MIC,[4],0.5 µM
same,MFC,[5],1 µM
same,MIC,[5],0.5 µM
same,MIC,[6],63 µM
same,MIC,[7],0.5 µM
same,MIC,[8],0.5 µM
same,MIC,[9],250 µM
same,MFC,[10],250 µM
same,MIC,[10],250 µM
same,MFC,[11],125 µM
same,MIC,[11],125 µM
same,MFC,[12],16 µM
same,MIC,[12],7.8 µM
same,MIC,[13],7.8 µM
same,MFC,[14],1 µM
same,MIC,[14],0.5 µM
same,MBC,[15],31 µM
same,MIC,[15],7.8 µM
same,MIC,[16],125 µM
same,MFC,[17],1 µM
same,MIC,[17],0.5 µM
same,MIC,[18],0.5 µM
same,MFC,[19],63 µM
same,MIC,[19],63 µM
same,MIC,[20],250 µM
same,MIC,[21],0.5 µM
same,MBC,[22],1 µM
same,MIC,[22],0.5 µM
same,MIC,[23],7.8 µM
same,MIC,[24],0.5 µM
same,MBC,[25],63 µM
same,MIC,[25],16 µM
same,IC50,[1],15 µM
same,MIC,[26],0.5 µM
same,MBC,[27],1 µM
same,MIC,[27],0.5 µM
same,MIC,[28],16 µM
same,MBC,[29],63 µM
same,MIC,[29],7.8 µM
same,MBC,[30],1 µM
same,MIC,[30],0.5 µM
same,MIC,[31],7.8 µM
same,MBC,[32],125 µM
same,MIC,[32],63 µM
same,MIC,[33],63 µM
CCCCCCCCCCCCCCCC[N+](C)(C)Cc1ccccc1,MBC,[2],125 µM
same,MIC,[2],16 µM
same,MFC,[3],7.8 µM
same,MIC,[3],7.8 µM
same,MIC,[4],3.9 µM
same,MFC,[5],7.8 µM
same,MIC,[5],7.83 µM
same,MIC,[6],7.8 µM
same,MIC,[7],3.9 µM
same,MIC,[8],1 µM
same,MIC,[9],7.8 µM
same,MFC,[10],63 µM
same,MIC,[10],7.8 µM
same,MFC,[11],63 µM
same,MIC,[11],7.8 µM
same,MFC,[12],63 µM
same,MIC,[12],7.8 µM
same,MIC,[13],7.8 µM
same,MFC,[14],2 µM
same,MIC,[14],2 µM
same,MBC,[15],7.8 µM
same,MIC,[15],7.8 µM
same,MIC,[16],7.8 µM
same,MFC,[17],63 µM
same,MIC,[17],3.9 µM
same,MIC,[18],2 µM
same,MFC,[19],63 µM
same,MIC,[19],7.8 µM
same,MIC,[20],16 µM
same,MIC,[21],0.5 µM
same,MBC,[22],3.9 µM
same,MIC,[22],1 µM
same,MIC,[23],2 µM
same,MIC,[24],2 µM
same,MBC,[25],7.8 µM
same,MIC,[25],7.8 µM
same,IC50,[1],15 µM
same,MIC,[26],2 µM
same,MBC,[27],3.9 µM
same,MIC,[27],0.5 µM
same,MIC,[28],7.8 µM
same,MBC,[29],3.9 µM
same,MIC,[29],2 µM
same,MBC,[30],3.9 µM
same,MIC,[30],2 µM
same,MIC,[31],7.8 µM
same,MBC,[32],7.8 µM
same,MIC,[32],7.8 µM
same,MIC,[33],7.8 µM
CCCCCCCCCC[n+]1ccc2ccccc2c1,MBC,[2],> 500 µM
same,MIC,[2],> 500 µM
same,MFC,[3],7.8 µM
same,MIC,[3],3.8 µM
same,MIC,[4],16 µM
same,MFC,[5],63 µM
same,MIC,[5],16 µM
same,MIC,[6],250 µM
same,MIC,[7],3.9 µM
same,MIC,[8],16 µM
same,MIC,[9],> 500 µM
same,MFC,[10],> 500 µM
same,MIC,[10],> 500 µM
same,MFC,[11],> 500 µM
same,MIC,[11],500 µM
same,MFC,[12],125 µM
same,MIC,[12],63 µM
same,MIC,[13],63 µM
same,MFC,[14],2 µM
same,MIC,[14],0.5 µM
same,MBC,[15],125 µM
same,MIC,[15],63 µM
same,MIC,[16],500 µM
same,MFC,[17],31 µM
same,MIC,[17],7.8 µM
same,MIC,[18],0.5 µM
same,MFC,[19],250 µM
same,MIC,[19],250 µM
same,MIC,[20],> 500 µM
same,MIC,[21],2 µM
same,MBC,[22],31 µM
same,MIC,[22],16 µM
same,MIC,[23],63 µM
same,MIC,[24],7.8 µM
same,MBC,[25],125 µM
same,MIC,[25],63 µM
same,IC50,[1],41 µM
same,MIC,[26],31 µM
same,MBC,[27],16 µM
same,MIC,[27],2 µM
same,MIC,[28],63 µM
same,MBC,[29],125 µM
same,MIC,[29],63 µM
same,MBC,[30],125 µM
same,MIC,[30],31 µM
same,MIC,[31],63 µM
same,MBC,[32],500 µM
same,MIC,[32],250 µM
same,MIC,[33],250 µM
CCCCCCCCCC[n+]1ccc2c(O)cccc2c1,MBC,[2],> 500 µM
same,MIC,[2],250 µM
same,MFC,[3],500 µM
same,MIC,[3],125 µM
same,MIC,[4],250 µM
same,MFC,[5],250 µM
same,MIC,[5],250 µM
same,MIC,[6],250 µM
same,MIC,[7],125 µM
same,MIC,[8],16 µM
same,MIC,[9],> 500 µM
same,MFC,[10],> 500 µM
same,MIC,[10],> 500 µM
same,MFC,[11],> 500 µM
same,MIC,[11],> 500 µM
same,MFC,[12],125 µM
same,MIC,[12],31 µM
same,MIC,[13],31 µM
same,MFC,[14],31 µM
same,MIC,[14],31 µM
same,MBC,[15],63 µM
same,MIC,[15],63 µM
same,MIC,[16],> 500 µM
same,MFC,[17],63 µM
same,MIC,[17],16 µM
same,MIC,[18],31 µM
same,MFC,[19],500 µM
same,MIC,[19],250 µM
same,MIC,[20],250 µM
same,MIC,[21],250 µM
same,MBC,[22],63 µM
same,MIC,[22],16 µM
same,MIC,[23],500 µM
same,MIC,[24],16 µM
same,MBC,[25],63 µM
same,MIC,[25],63 µM
same,IC50,[1],92 µM
same,MIC,[26],31 µM
same,MBC,[27],250 µM
same,MIC,[27],250 µM
same,MIC,[28],63 µM
same,MBC,[29],500 µM
same,MIC,[29],500 µM
same,MBC,[30],16 µM
same,MIC,[30],31 µM
same,MIC,[31],63 µM
same,MBC,[32],500 µM
same,MIC,[32],500 µM
same,MIC,[33],500 µM
